# Columns and labels:
# FLT3 TKD mutation D835Y = molecular target: T1, FLT3 TKD mutation D835Y (Homo sapiens, UniProt P36888, D835Y); assay: Direct enzyme phosphorylation assay (Millipore Kinase IC50 Profiler), FLT3 D835Y; format: biochemical; conditions: tosylate salt; n=2; read-out: IC50 against the FLT3 TKD mutation D835Y
# T1 construct: purchased Millipore
# T1 sequence (P36888 27-993 D835Y): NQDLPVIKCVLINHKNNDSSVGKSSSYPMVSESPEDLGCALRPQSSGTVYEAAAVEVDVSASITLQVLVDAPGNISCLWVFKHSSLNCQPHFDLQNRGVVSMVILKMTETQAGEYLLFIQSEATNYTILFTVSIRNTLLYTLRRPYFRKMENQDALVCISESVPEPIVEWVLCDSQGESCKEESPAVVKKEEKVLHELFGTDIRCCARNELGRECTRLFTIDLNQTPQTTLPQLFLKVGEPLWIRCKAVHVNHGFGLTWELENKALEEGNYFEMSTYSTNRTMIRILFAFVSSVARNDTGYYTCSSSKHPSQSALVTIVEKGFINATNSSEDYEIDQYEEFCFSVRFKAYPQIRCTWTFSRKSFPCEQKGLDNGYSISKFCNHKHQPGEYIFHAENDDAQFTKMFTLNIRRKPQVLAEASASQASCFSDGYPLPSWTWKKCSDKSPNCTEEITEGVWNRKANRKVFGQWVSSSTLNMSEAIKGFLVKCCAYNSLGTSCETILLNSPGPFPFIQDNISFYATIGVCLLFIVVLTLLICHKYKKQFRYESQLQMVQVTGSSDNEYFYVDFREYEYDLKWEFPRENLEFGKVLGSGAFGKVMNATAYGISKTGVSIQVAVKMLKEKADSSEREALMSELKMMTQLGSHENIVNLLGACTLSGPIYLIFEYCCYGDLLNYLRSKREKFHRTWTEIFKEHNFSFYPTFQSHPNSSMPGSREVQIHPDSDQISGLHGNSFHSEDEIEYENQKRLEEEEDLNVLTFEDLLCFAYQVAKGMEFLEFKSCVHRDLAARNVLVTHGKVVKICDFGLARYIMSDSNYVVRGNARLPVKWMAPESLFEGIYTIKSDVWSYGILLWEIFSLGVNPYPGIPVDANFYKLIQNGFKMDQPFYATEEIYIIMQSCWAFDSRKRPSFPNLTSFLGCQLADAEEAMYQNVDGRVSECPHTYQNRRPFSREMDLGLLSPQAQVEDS
# Description: Direct enzyme phosphorylation assay. The Millipore Kinase IC50 Profiler assay was used to screen the present invention against a panel of normal FLT3 and mutated FLT3 kinases. For assays of both kinases, the FLT3 enzyme was incubated with 8 mM of 3-(N-morpholino)propanesulfonic acid (MOPS) at a pH of 7.0, 0.2 mM Ethylenediaminetetraacetic acid (EDTA), 50 uM, a synthetic Abl peptide substrate […] (SEQ ID NO: 1), 10 mM MgAcetate and [γ-^33P-ATP]. The reaction was initiated by the addition of MgATp mix. The reaction mixture was incubated for 40 minutes at room temperature and halted by the addition of 3% phosphoric acid solution. 10 uL of the reaction solution was spotted on P30 filtermat and washed three times in 75 mM phosphoric acid for 5 minutes and then once in methanol prior to drying and scintillation counting. The scintillation values for each replicate, including positive and negative controls, were analyzed using XLFit version 5.1 to determine the IC50 values for the present invention against normal and mutated FLT3.
# FLT3-ITD = molecular target: T2, FLT3-ITD (Homo sapiens, UniProt P36888); assay: Inhibition of FLT3-ITD phosphorylation by western blot in Molm-13 cells; format: cell-based; conditions: tosylate salt, read-out: IC50, inhibition of phosphorylation of the FLT3-ITD receptor
# T2 sequence (P36888 with tags, fused parts or gaps DUP594-600): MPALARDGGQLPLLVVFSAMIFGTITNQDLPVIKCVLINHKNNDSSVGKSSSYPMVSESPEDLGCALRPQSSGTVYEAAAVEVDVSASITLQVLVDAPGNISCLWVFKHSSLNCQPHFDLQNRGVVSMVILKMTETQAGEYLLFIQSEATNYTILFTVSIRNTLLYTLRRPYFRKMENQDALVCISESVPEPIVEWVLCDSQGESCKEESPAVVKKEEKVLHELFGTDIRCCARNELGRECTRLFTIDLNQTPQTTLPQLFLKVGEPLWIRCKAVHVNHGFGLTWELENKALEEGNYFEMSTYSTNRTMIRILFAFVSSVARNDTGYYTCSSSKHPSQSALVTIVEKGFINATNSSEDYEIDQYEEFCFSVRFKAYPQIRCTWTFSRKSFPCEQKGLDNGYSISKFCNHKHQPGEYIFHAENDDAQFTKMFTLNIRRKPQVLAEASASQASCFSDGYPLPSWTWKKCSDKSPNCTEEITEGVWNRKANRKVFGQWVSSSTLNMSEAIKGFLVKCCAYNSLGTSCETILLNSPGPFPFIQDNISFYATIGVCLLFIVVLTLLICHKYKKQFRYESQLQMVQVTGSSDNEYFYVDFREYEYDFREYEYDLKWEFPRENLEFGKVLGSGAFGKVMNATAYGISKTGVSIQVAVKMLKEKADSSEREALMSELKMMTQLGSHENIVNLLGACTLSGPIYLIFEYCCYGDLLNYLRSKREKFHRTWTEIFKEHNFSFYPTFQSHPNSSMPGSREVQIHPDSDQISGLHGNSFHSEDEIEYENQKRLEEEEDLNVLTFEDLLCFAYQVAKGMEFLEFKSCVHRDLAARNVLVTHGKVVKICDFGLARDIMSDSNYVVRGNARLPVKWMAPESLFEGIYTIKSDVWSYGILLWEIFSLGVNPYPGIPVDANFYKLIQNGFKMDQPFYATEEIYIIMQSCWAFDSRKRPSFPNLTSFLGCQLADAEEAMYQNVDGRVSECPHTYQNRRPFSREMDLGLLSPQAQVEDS
# Description: The ability of the tosylate (toluenesulfonate) salt of CP-673,451 to inhibit phosphorylated FLT3 was determined using cell lines expressing FLT3-ITD, including Molm-13 (a human acute myeloid leukemia cell line) and BaF3 (bone marrow-derived pro-B-cell line) cells transduced to express FLT3. The effect was examined by western blot.
# FLT3 wild type = molecular target: T3, FLT3 wild type (Homo sapiens, UniProt P36888); assay: KINOMEscan KdElect competitive binding assay, wild type FLT3; conditions: CP-673,451 as tosylate salt; read-out: Binding Constant (Kd), FLT3 wild type
# T3 construct: host or cells: E. coli BL21-derived host (T7 phage) or HEK-293
# T3 sequence (P36888 610-943 limits assumed): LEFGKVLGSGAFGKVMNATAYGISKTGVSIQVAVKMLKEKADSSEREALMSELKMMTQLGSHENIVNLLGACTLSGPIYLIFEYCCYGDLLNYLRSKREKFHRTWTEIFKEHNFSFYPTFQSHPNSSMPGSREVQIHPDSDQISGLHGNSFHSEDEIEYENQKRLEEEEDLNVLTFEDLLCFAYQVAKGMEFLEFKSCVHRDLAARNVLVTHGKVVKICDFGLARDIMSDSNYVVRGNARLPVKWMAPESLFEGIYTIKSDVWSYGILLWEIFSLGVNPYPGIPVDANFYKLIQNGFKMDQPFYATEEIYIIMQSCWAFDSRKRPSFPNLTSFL
# Description: Competitive binding assay.
# The lysates were then centrifuged and filtered.
smiles,measurement,setting,value
"COCCOc1ccc2c(c1)ncn2-c1ccc2cccc(N3CCC(N)CC3)c2n1 [CP-673,451]",IC50,FLT3 TKD mutation D835Y,3 nM
same,IC50,FLT3-ITD,0.7 nM
same,Kd,FLT3 wild type,0.35 nM

# From patent US10463658B2, “Method of inhibiting FLT3 kinase” (AROG Pharmaceuticals, LLC, priority 2013, dated 2019)
